Source: patent US20150110716A1, “METHODS OF USING SPECT/CT ANALYSIS FOR STAGING CANCER” (Molecular Insight Pharmaceuticals, Inc., priority 2013, published 2015)

Columns and labels:
[1] = test system: lesions in lymph nodes and bone of men with prostate cancer; assay: Phase 1 cross-over study: whole-body and SPECT/CT lesion imaging; format: in vivo, human; settings: patient with prior prostatectomy and rising PSA, FIG. 2C
Text: (§1) Pharmacokinetics, Biodistribution, Dosimetry, Metabolism & Excretion of compound represented by Formula (1) and Formula (2). Methods: Fourteen subjects (7 metastatic prostate cancer patients and 7 healthy, normal males) were enrolled in a phase 1, single-blind, randomized, cross-over study in which subjects were randomly administered a single dose (740 MBq; 20 mCi) of a compound represented by Formula (1) and a similar chemical analog, a compound represented by Formula (2), 14 days apart. […] (FIGS. 1 and 2A)

[2] = Phase 1 cross-over study: pharmacokinetics, biodistribution, dosimetry, excretion; format: in vivo, human
Text: as §1

PSMA = PSMA (Homo sapiens, UniProt Q04609); assay: In vitro binding studies to PSMA; settings: read-out: affinity of binding to PSMA
Text: As illustrated, the dimeric backbone of both Formula (1) and Formula (2) compounds contain carboxylate residues that bind to the basic substrate binding pockets of the protein. The radiolabel chelator is attached to the side chain carboxyl residue (Formula (1)) or the side chain amine group (Formula (2)) through an intervening linker.

PSMA, sequence (Q04609 whole entry): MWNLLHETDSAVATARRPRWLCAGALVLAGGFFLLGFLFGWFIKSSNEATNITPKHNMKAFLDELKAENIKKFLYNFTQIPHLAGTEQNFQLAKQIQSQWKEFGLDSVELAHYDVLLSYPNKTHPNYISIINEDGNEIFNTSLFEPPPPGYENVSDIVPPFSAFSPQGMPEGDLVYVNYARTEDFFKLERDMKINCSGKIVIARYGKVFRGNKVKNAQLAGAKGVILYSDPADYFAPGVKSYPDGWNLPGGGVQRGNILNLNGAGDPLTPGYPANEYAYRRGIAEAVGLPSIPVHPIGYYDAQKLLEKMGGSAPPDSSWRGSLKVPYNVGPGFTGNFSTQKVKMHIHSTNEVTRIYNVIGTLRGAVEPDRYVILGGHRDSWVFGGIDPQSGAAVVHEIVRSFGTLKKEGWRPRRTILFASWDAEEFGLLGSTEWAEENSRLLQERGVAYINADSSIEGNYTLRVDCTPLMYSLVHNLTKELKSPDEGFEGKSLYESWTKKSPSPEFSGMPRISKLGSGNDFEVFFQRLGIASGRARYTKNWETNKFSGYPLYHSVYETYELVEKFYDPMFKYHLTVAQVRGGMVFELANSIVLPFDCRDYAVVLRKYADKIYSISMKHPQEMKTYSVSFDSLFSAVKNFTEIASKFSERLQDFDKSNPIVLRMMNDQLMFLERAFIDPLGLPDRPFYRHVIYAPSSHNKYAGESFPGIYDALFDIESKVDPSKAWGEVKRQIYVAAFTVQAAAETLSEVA

Row | SMILES | detection of metastatic lesions compared with bone scan [1] | period over which compound is cleared from blood ([2]; FIG. 1A) | physiological clearance rate ([2]; Formula (2) compared with Formula (1)) | rate of clearance from blood ([2]; Formula (2) compared with Formula (1), FIG. 1A) | clearance from these organs ([2]; Formula (2) compared with Formula (1), full body scans over 24 hours) | tissues of accumulation ([2]; in vivo pharmacokinetic and biodistribution studies) | estimated radiation dose (dosimetry) ([2]; single dose 740 MBq (20 mCi)) | amount excreted in urine ([2]; urine samples over 30 hours post administration, Formula (2) compared with Formula (1), FIG. 1B) | Kd (PSMA) [nM]
1 | N[C@@H](CCCC[N+]12Cc3n(CC(=O)O)cc[n+]3[99Tc-2]1[n+]1ccn(CC(=O)O)c1C2)C(=O)NCCCCC(NC(=O)NC(CCC(=O)O)C(=O)O)C(=O)O.[C-]#[O+].[C-]#[O+].[C-]#[O+] (stereo partly drawn) [Formula (2)] | identified multiple foci of metastatic cancer not seen in the bone scan | about 1500 minutes | more rapid | greater | clears more rapidly | liver, kidneys and salivary glands as well as the urinary bladder and prostate tissue | within the clinically acceptable range | significantly greater amount | 
2 | N[C@@H](CCCC[N+]12Cc3n(CC(=O)O)cc[n+]3[Tc-2]1[n+]1ccn(CC(=O)O)c1C2)C(=O)NCCCCC(NC(=O)NC(CCC(=O)O)C(=O)O)C(=O)O.[C-]#[O+].[C-]#[O+].[C-]#[O+] (stereo partly drawn) [Formula (2)] |  |  |  |  |  |  |  |  | 31
